Experimental findings from ChEMBL document CHEMBL3508140 (2016) are described below.

A short description of data set [1]: Terminal half-life of doxorubicinol following intravenous doxorubicinol at 1.27 mg.Kg-1 dose in dog. The data set is classed as ADME, organism-based, Canis lupus familiaris, Beagle, Plasma. Further details: dose 1.27 mg.Kg-1, dosed compound id 2.4681e+06, dosed compound name Doxorubicinol, route intravenous. The note with it: in vivo.
Data set [2] is described as follows: Recovery of doxorubicinol following intraperitoneal epirubicin at 4 mg.Kg-1 dose in mouse. The settings on record: in vivo, ip. The class given is ADME, organism-based, CD-1, Plasma.
A short description of data set [3]: Recovery of doxorubicinol following intravenous epirubicin at 4 mg.Kg-1 dose in rat. The data set is classed as ADME, organism-based, SD, Plasma. The settings on record: in vivo.
Data set [4] is described as follows: Recovery of doxorubicinol following intraperitoneal epirubicin at 4 mg.Kg-1 dose in hamster. The class given is ADME, organism-based, Cricetulus griseus, Plasma. The settings on record: chinese hamster, in vivo, ip.
Data set [5] can be described thus: Recovery of doxorubicinol following intravenous epirubicin at 4 mg.Kg-1 dose in rabbit. The class given is ADME, organism-based, Oryctolagus cuniculus, New Zealand White, Plasma. The note with it: in vivo.
Data set [6] is described as follows: Recovery of doxorubicinol following intravenous epirubicin at 1.5 mg.Kg-1 dose in man. The settings on record: human, in vivo. The data set is classed as ADME, organism-based, Plasma.
A short description of data set [7]: Detection of doxorubicinol in plasma following single intravenous doxorubicin at 10 mg.Kg-1 dose in female mouse bearing colon tumor. The class given is ADME, organism-based, BALB/c. Set-up: dose 10 mg.Kg-1, dosed compound id 2.46809e+06, dosed compound name Doxorubicin, gender F, regimen Single, route intravenous, sampling time 48 h. The settings on record: in vivo.

Data set [8] is described as follows: Detection of doxorubicinol in heart following single intravenous doxorubicin at 10 mg.Kg-1 dose in female mouse bearing colon tumor. The class given is ADME, organism-based, BALB/c. Further details: dose 10 mg.Kg-1, dosed compound id 2.46809e+06, dosed compound name Doxorubicin, gender F, regimen Single, route intravenous, sampling time 48 h. The note with it: in vivo.

Data set [9] in a line: Detection of doxorubicinol in tumor following single intravenous doxorubicin at 10 mg.Kg-1 dose in female mouse bearing colon tumor. The class given is ADME, organism-based, BALB/c, Neoplasm. Set-up: dose 10 mg.Kg-1, dosed compound id 2.46809e+06, dosed compound name Doxorubicin, gender F, regimen Single, route intravenous, sampling time 48 h. The note with it: in vivo.
Data set [10] in a line: AUC values (0-48 h) of doxorubicinol in plasma following single intravenous doxorubicin at 10 mg.Kg-1 dose in female mouse bearing colon tumor. The data set is classed as ADME, organism-based, BALB/c. Set-up: time < 48 hr, dose 10 mg.Kg-1, dosed compound id 2.46809e+06, dosed compound name Doxorubicin, gender F, regimen Single, route intravenous, sampling time 48 h. The settings on record: in vivo.

Data set [11] in a line: AUC values (0-48 h) of doxorubicinol in heart following single intravenous doxorubicin at 10 mg.Kg-1 dose in female mouse bearing colon tumor. The data set is classed as ADME, organism-based, BALB/c. Further details: time < 48 hr, dose 10 mg.Kg-1, dosed compound id 2.46809e+06, dosed compound name Doxorubicin, gender F, regimen Single, route intravenous, sampling time 48 h. The note with it: in vivo.

The nature of data set [12]: AUC values (0-48 h) of doxorubicinol in tumor following single intravenous doxorubicin at 10 mg.Kg-1 dose in female mouse bearing colon tumor. Set-up: time < 48 hr, dose 10 mg.Kg-1, dosed compound id 2.46809e+06, dosed compound name Doxorubicin, gender F, regimen Single, route intravenous, sampling time 48 h. The note with it: in vivo. The data set is classed as ADME, organism-based, BALB/c, Neoplasm.

A short description of data set [13]: (§1) Urinary elimination of adriamycinol following intravenous bolus adriamycin at 10 mg.Kg-1 dose in rat. The data set is classed as ADME, organism-based, SD, Urine. Further details: dose 10 mg.Kg-1, dosed compound id 2.46809e+06, dosed compound name Doxorubicin, route intravenous, sampling time 0-6 h. The note with it: in vivo.
Data set [14] can be described thus: as §1. The data set is classed as ADME, organism-based, SD, Urine. Further details: dose 10 mg.Kg-1, dosed compound id 2.46809e+06, dosed compound name Doxorubicin, route intravenous, sampling time 0-24 h. The note with it: in vivo.
The nature of data set [15]: as §1. The class given is ADME, organism-based, SD, Urine. Set-up: dose 10 mg.Kg-1, dosed compound id 2.46809e+06, dosed compound name Doxorubicin, route intravenous, sampling time 0-60 h. The note with it: in vivo.
The species named for data set [16] is Homo sapiens. Nature of the data set: Binding of 14C-epirubicin at 100 ng.ml-1 concentration to plasma protein of man. The data set is classed as cell-free. Further details: gender.
The species named for data set [17] is Homo sapiens. Nature of the data set: Binding of 14C-epirubicin at 500 ng.ml-1 concentration to plasma protein of man. The data set is classed as cell-free. Set-up: gender.
The species named for data set [18] is Homo sapiens. As to the kind of experiment: Binding of 14C-epirubicin at 1000 ng.ml-1 concentration to plasma protein of man. Further details: gender. The data set is classed as cell-free.
Data set [19] is filed under the species Mus musculus. Nature of the data set: Binding of 14C-epirubicin at 20 ng.ml-1 concentration to plasma protein of mouse. The data set is classed as cell-free. The settings on record: CD-1.
Data set [20] is filed under the species Mus musculus. Nature of the data set: Binding of 14C-epirubicin at 100 ng.ml-1 concentration to plasma protein of mouse. The data set is classed as cell-free. The settings on record: CD-1.
For data set [21], the species on record is Mus musculus. As to the kind of experiment: Binding of 14C-epirubicin at 500 ng.ml-1 concentration to plasma protein of mouse. The class given is cell-free. The settings on record: CD-1.
The species named for data set [22] is Mus musculus. Nature of the data set: Binding of 14C-epirubicin at 1000 ng.ml-1 concentration to plasma protein of mouse. The class given is cell-free. The note with it: CD-1.
Data set [23] is filed under the species Rattus norvegicus. Nature of the data set: Binding of 14C-epirubicin at 20 ng.ml-1 concentration to plasma protein of rat. The data set is classed as cell-free. The note with it: SD.
The species named for data set [24] is Rattus norvegicus. As to the kind of experiment: Binding of 14C-epirubicin at 100 ng.ml-1 concentration to plasma protein of rat. The data set is classed as cell-free. The settings on record: SD.
For data set [25], the species on record is Rattus norvegicus. Nature of the data set: Binding of 14C-epirubicin at 500 ng.ml-1 concentration to plasma protein of rat. The settings on record: SD. The data set is classed as cell-free.
The species entered for data set [26] is Rattus norvegicus. Nature of the data set: Binding of 14C-epirubicin at 1000 ng.ml-1 concentration to plasma protein of rat. The data set is classed as cell-free. The note with it: SD.
The species named for data set [27] is Oryctolagus cuniculus. Nature of the data set: Binding of 14C-epirubicin at 20 ng.ml-1 concentration to plasma protein of rabbit. The class given is cell-free. The note with it: New Zealand White.
For data set [28], the species on record is Oryctolagus cuniculus. As to the kind of experiment: Binding of 14C-epirubicin at 100 ng.ml-1 concentration to plasma protein of rabbit. The class given is cell-free. The note with it: New Zealand White.
Data set [29] is filed under the species Oryctolagus cuniculus. As to the kind of experiment: Binding of 14C-epirubicin at 500 ng.ml-1 concentration to plasma protein of rabbit. The data set is classed as cell-free. The note with it: New Zealand White.
Data set [30] is filed under the species Oryctolagus cuniculus. As to the kind of experiment: Binding of 14C-epirubicin at 1000 ng.ml-1 concentration to plasma protein of rabbit. The class given is cell-free. The note with it: New Zealand White.
For data set [31], the species on record is Canis lupus familiaris. As to the kind of experiment: Binding of 14C-epirubicin at 20 ng.ml-1 concentration to plasma protein of dog. The data set is classed as cell-free. The settings on record: Beagle.
The species named for data set [32] is Canis lupus familiaris. As to the kind of experiment: Binding of 14C-epirubicin at 100 ng.ml-1 concentration to plasma protein of dog. The data set is classed as cell-free. The settings on record: Beagle.
The species entered for data set [33] is Canis lupus familiaris. Nature of the data set: Binding of 14C-epirubicin at 500 ng.ml-1 concentration to plasma protein of dog. The note with it: Beagle. The class given is cell-free.
Data set [34] is filed under the species Canis lupus familiaris. As to the kind of experiment: Binding of 14C-epirubicin at 1000 ng.ml-1 concentration to plasma protein of dog. The data set is classed as cell-free. The note with it: Beagle.
The species named for data set [35] is Homo sapiens. As to the kind of experiment: Binding of epirubicin at 20-1000 ng.ml-1 concentration to plasma protein of human. The class given is cell-free.
Data set [36] is filed under the species Homo sapiens. As to the kind of experiment: Binding of epirubicin to plasma protein of human. The class given is cell-free.
Data set [37] is filed under the species Rattus norvegicus. Nature of the data set: Binding of 14C-epirubicin at 0.164 ug-ml-1 concentration to plasma protein of rat. The settings on record: SD, at 0.164 µg/mL. Further details: conc 0.164 ug.ml-1, dosed compound id 2.46808e+06, dosed compound name, sampling time 30 min. The data set is classed as organism-based.
For data set [38], the species on record is Rattus norvegicus. Nature of the data set: Binding of 14C-epirubicin at 0.077 ug-ml-1 concentration to plasma protein of rat. The data set is classed as organism-based. Set-up: conc 0.077 ug.ml-1, dosed compound id 2.46808e+06, dosed compound name, sampling time 6 h. The settings on record: SD, at 0.077 µg/mL.
The species named for data set [39] is Rattus norvegicus. Nature of the data set: Binding of 14C-epirubicin at 0.048 ug-ml-1 concentration to plasma protein of rat. The data set is classed as organism-based. Further details: conc 0.048 ug.ml-1, dosed compound id 2.46808e+06, dosed compound name, sampling time 24 h. The settings on record: SD, at 0.048 µg/mL.
The species entered for data set [40] is Rattus norvegicus. As to the kind of experiment: Binding of 14C-epirubicin at 0.056 ug-ml-1 concentration to plasma protein of rat. The data set is classed as cell-free. Further details: conc 0.056 ug.ml-1. The settings on record: SD, at 0.056 µg/mL.
The species named for data set [41] is Rattus norvegicus. As to the kind of experiment: Binding of 14C-epirubicin at 0.223 ug-ml-1 concentration to plasma protein of rat. The class given is cell-free. Further details: conc 0.223 ug.ml-1. The settings on record: SD, at 0.223 µg/mL.
The species entered for data set [42] is Rattus norvegicus. Nature of the data set: Binding of 14C-epirubicin at 1.081 ug-ml-1 concentration to plasma protein of rat. The data set is classed as cell-free. Set-up: conc 1.081 ug.ml-1. The settings on record: SD, at 1.081 µg/mL.

Regarding `COc1cccc2c1C(=O)c1c(O)c3c(c(O)c1C2=O)C[C@@](O)(C(O)CO)C[C@@H]3O[C@H]1C[C@H](N)[C@H](O)[C@H](C)O1` (some centres not stated), in [1], the t1/2 result is “VALUE = Shorter than doxorubicin”. Also, the Compound recovery in data set [2] was 0 10^-9M; in data set [3], 0.6 10^-9M; in data set [4], 0.1 10^-9M; in data set [5], 0.3 10^-9M; in data set [6], 1 10^-9M; in data set [7], “OUTCOME = Observed”. Also, the Compound recovery entry is given as “OUTCOME = Observed” in [8]; “OUTCOME = Not detected/not observed” in [9]; 0.22% in [13]; 0.26% in [14]; 0.3% in data set [15]. For the same compound, the values for the AUC in [10], in data set [11] and in data set [12] were 1.7 nmol·min/mL, 228 nmol·min/g and 0 nmol·min/g, respectively.
For the compound `COc1cccc2c1C(=O)c1c(O)c3c(c(O)c1C2=O)C[C@@](O)(C(=O)CO)C[C@@H]3O[C@H]1C[C@H](N)[C@@H](O)[C@H](C)O1`, the PPB in the data set filed under Homo sapiens [16] was found to be 78.1%; in the data set listed under Homo sapiens [17], 77.3%; in the data set filed under Homo sapiens [18], 76.8%; in the data set filed under Mus musculus [19], 76.5%; in the data set filed under Mus musculus [20] it was 79.9%; in the data set filed under Mus musculus [21], 80%. The PPB stood at 80.3% in the data set listed under Mus musculus [22]; 79.1% in the data set listed under Rattus norvegicus [23]; 82.8% in the data set filed under Rattus norvegicus [24]; 81.3% in the data set filed under Rattus norvegicus [25]; 78.7% in the data set listed under Rattus norvegicus [26]; 78.5% in the data set listed under Oryctolagus cuniculus [27]. Further, the PPB in the data set filed under Oryctolagus cuniculus [28] worked out at 70.2%; in the data set listed under Oryctolagus cuniculus [29], 78.4%; in the data set filed under Oryctolagus cuniculus [30] it was 77.1%; in the data set listed under Canis lupus familiaris [31], 80.3%; in the data set filed under Canis lupus familiaris [32], 81.2%; in the data set filed under Canis lupus familiaris [33], 80.7%. Besides, the PPB was 80.9% in the data set listed under Canis lupus familiaris [34]; 77% in the data set listed under Homo sapiens [35]; 75% in the data set filed under Homo sapiens [36]; 80.7% in the data set filed under Rattus norvegicus [37]; 85.6% in the data set listed under Rattus norvegicus [38]; 88.2% in the data set listed under Rattus norvegicus [39]. For the same compound, the PPB in the data set listed under Rattus norvegicus [40] came out at 81.7%; in the data set listed under Rattus norvegicus [41] it was 81%; in the data set filed under Rattus norvegicus [42], 82.2%.
